In patent US7304174B2, “CaSR antagonist” (Japan Tobacco Inc., priority 2003, dated 2007) one finds IC50 data, which are given here for 21 compounds.

Molecules are shown by their SMILES.

In this experiment the target is T1, human calcium receptor (Homo sapiens, UniProt P41180).
T1 construct: expressed in transfected cells; host or cells: cell strain derived from rat adrenal, co-transformed with luciferase cDNA
T1 sequence (P41180 20-1078): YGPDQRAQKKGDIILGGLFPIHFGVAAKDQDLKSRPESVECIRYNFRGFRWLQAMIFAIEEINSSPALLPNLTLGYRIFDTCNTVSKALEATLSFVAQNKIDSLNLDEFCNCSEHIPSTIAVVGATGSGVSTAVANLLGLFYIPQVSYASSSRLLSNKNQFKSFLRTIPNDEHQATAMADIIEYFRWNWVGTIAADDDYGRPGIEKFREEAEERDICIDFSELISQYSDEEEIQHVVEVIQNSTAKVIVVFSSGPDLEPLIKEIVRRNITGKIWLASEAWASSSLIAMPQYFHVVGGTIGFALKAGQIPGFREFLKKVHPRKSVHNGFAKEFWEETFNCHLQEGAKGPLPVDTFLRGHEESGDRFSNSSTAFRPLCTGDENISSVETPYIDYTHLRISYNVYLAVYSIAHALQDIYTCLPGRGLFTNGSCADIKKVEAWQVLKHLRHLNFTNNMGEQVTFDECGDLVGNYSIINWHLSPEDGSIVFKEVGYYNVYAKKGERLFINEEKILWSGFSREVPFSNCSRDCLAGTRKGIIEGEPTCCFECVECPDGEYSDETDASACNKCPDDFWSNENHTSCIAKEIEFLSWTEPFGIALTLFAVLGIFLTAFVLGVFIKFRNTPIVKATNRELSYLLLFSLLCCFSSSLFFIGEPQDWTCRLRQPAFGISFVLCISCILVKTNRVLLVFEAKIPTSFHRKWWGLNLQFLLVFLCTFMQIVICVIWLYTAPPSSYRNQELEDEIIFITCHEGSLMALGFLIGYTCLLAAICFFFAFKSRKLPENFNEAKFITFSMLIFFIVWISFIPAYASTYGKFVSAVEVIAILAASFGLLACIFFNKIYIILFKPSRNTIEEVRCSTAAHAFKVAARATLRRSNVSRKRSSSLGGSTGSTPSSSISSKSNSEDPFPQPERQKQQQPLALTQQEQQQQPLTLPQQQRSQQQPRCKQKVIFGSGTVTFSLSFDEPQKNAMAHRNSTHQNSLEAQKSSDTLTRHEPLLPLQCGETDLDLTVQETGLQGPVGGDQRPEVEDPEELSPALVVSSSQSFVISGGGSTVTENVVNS
In words: Evaluation of antagonistic action on calcium receptor using reporter gene (luciferase). Type of experiment: cell-based. As to conditions: transformed rat adrenal derived cells, 5 mM calcium chloride, culture 4 hrs, luciferase activity; read-out: Reporter gene assay (IC50, concentration showing 50% inhibitory rate). The method, boiled down: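 Rat adrenal-derived cells transfected with luciferase and human calcium receptor cDNA, in F12 with 0.5% dialyzed horse serum and 0.25% dialyzed fetal bovine serum. Luciferase luminescence gave % inhibition vs control and blank; IC50 at 50% inhibition.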
In general terms: A reporter such as luciferase makes a cellular process visible.
On to `C[C@@H](OC[C@H](O)CNC(C)(C)Cc1ccc(Cl)cc1F)c1ccccc1-c1ccc(C(=O)O)c(C(C)(C)C)c1` [Example 1-99, 2′-[1-[(2R)-3-[[1-(4-chloro-2-fluorophenyl)-2-methylpropan-2-yl]amino]-2-hydroxypropoxy]ethyl]-3-t-butylbiphenyl-4-carboxylic acid], for which the IC50 is 23 nM.

For the compound `Cc1ccc(CC(C)(C)NC[C@@H](O)COC(C)c2ccccc2C=Cc2ccc(C(=O)O)cc2)cc1F` (stereo partly drawn) [Example 2-11, 4-[2-[2-[1-[(2R)-3-[[1-(3-fluoro-4-methylphenyl)-2-methylpropan-2-yl]amino]-2-hydroxypropoxy]ethyl]phenyl]vinyl]benzoic acid], the IC50 turned out to be 21 nM.

`CC(C)(Cc1ccc2ccccc2c1)NC[C@@H](O)COC(c1ccccc1-c1ccc(C(=O)O)c(F)c1)C1CC1` (stereo partly drawn) [Example 1-64, 2′-[(cyclopropyl)[(2R)-3-[[1-(naphthalen-2-yl)-2-methylpropan-2-yl]amino]-2-hydroxypropoxy]methyl]-3-fluorobiphenyl-4-carboxylic acid]: the IC50 came out at 17 nM. Next, `Cc1cc(-c2ccccc2C(OC[C@H](O)CNC(C)(C)Cc2ccc3ccccc3c2)C2CC2)ccc1C(=O)O` (stereo partly drawn) [Example 1-63, 2′-[(cyclopropyl)[(2R)-3-[[1-(naphthalen-2-yl)-2-methylpropan-2-yl]amino]-2-hydroxypropoxy]methyl]-3-methylbiphenyl-4-carboxylic acid]: 16 nM; `Cc1ccc(CC(C)(C)NC[C@@H](O)CO[C@H](C)c2ccccc2-c2cc3c(c(C(=O)O)c2)OCC3)cc1F` [Example 1-78, 2,3-dihydro-5-[2-[1-[(2R)-3-[[1-(3-fluoro-4-methylphenyl)-2-methylpropan-2-yl]amino]-2-hydroxypropoxy]ethyl]phenyl]benzofuran-7-carboxylic acid]: 20 nM; `Cc1ccc(CC(C)(C)NC[C@@H](O)CO[C@H](C)c2ccccc2-c2ccc(C(=O)O)c(C)c2)c(F)c1` [Example 1-7, 2′-[1-[(2R)-3-[[1-(2-fluoro-4-methylphenyl)-2-methylpropan-2-yl]amino]-2-hydroxypropoxy]ethyl]-3-methylbiphenyl-4-carboxylic acid]: 15 nM. The result for `Cc1cc(-c2ccccc2[C@@H](C)OC[C@H](O)CNC(C)(C)Cc2cc(F)ccc2F)ccc1C(=O)O` [Example 1-89, 2′-[1-[(2R)-3-[[1-(2,5-difluorophenyl)-2-methylpropan-2-yl]amino]-2-hydroxypropoxy]ethyl]-3-methylbiphenyl-4-carboxylic acid] reads 271 nM; that for `CC(OC[C@H](O)CNC(C)(C)Cc1ccc2ccccc2c1)c1ccccc1OCc1cccc(C(=O)O)c1` (stereo partly drawn) [Example 2-21, 3-[[2-[1-[(2R)-3-[[1-(naphthalen-2-yl)-2-methylpropan-2-yl]amino]-2-hydroxypropoxy]ethyl]phenoxy]methyl]benzoic acid], 17 nM.

Turning to `Cc1cc(-c2ccccc2[C@@H](C)OC[C@H](O)CNC(C)(C)Cc2cc(F)cc(Cl)c2)ccc1C(=O)O` [Example 1-93], the IC50 stood at 27 nM. The result for `Cc1ccc(CC(C)(C)NC[C@@H](O)CO[C@H](C)c2ccccc2OCc2ccc(C(=O)O)cc2)cc1F` [Example 2-24, 4-[[2-[1-[(2R)-3-[[1-(3-fluoro-4-methylphenyl)-2-methylpropan-2-yl]amino]-2-hydroxypropoxy]ethyl]phenoxy]methyl]benzoic acid] reads 57 nM. The result for `C[C@@H](OC[C@H](O)CNC(C)(C)Cc1ccc2ccccc2c1)c1ccccc1-c1ccc(C(=O)O)c(-c2ccccc2)c1` [Example 1-41, 2-[1-[(2R)-3-[[1-(naphthalen-2-yl)-2-methylpropan-2-yl]amino]-2-hydroxypropoxy]ethyl]-m-terphenyl-4′-carboxylic acid] reads 3 nM; that for `C[C@@H](OC[C@H](O)CNC(C)(C)Cc1ccc2ccccc2c1)c1ccccc1-c1ccc(C(=O)O)c(O)c1` [Example 1-49, 2′-[1-[(2R)-3-[[1-(naphthalen-2-yl)-2-methylpropan-2-yl]amino]-2-hydroxypropoxy]ethyl]-3-hydroxybiphenyl-4-carboxylic acid], 2 nM. The result for `C[C@@H](OC[C@H](O)CNC(C)(C)Cc1ccc2ccccc2c1)c1ccccc1Cc1ccc(C(=O)O)cc1` [Example 2-14, 4-[2-[1-[(2R)-3-[[1-(naphthalen-2-yl)-2-methylpropan-2-yl]amino]-2-hydroxypropoxy]ethyl]benzyl]benzoic acid] reads 53 nM; that for `COc1cc(-c2ccccc2[C@@H](C)OC[C@H](O)CNC(C)(C)Cc2ccc(Cl)c(F)c2)ccc1C(=O)O` [Example 1-82, 2′-[1-[(2R)-3-[[1-(4-chloro-3-fluorophenyl)-2-methylpropan-2-yl]amino]-2-hydroxypropoxy]ethyl]-3-methoxybiphenyl-4-carboxylic acid], 27 nM; that for `Cc1cc(C(=O)O)cc(-c2ccccc2[C@@H](C)OC[C@H](O)CNC(C)(C)Cc2ccc3ccccc3c2)c1` [Example 1-9, 3-methyl-2′-[1-[(2R)-3-[[1-(naphthalen-2-yl)-2-methylpropan-2-yl]amino]-2-hydroxypropoxy]ethyl]biphenyl-5-carboxylic acid], 16 nM. As to `Cc1cc(-c2ccccc2[C@@H](C)OC[C@H](O)CNC(C)(C)Cc2ccc(Cl)c(C(F)(F)F)c2)ccc1C(=O)O` [Example 1-97, 2′-[1-[(2R)-3-[[1-(4-chloro-3-trifluoromethylphenyl)-2-methylpropan-2-yl]amino]-2-hydroxypropoxy]ethyl]-3-methylbiphenyl-4-carboxylic acid], the IC50 was determined as 106 nM. `CC(C)(Cc1ccc2ccccc2c1)NC[C@@H](O)COC(c1ccccc1-c1ccc(C(=O)O)cc1F)C1CC1` (stereo partly drawn) [Example 1-65, 2′-[(cyclopropyl)[(2R)-3-[[1-(naphthalen-2-yl)-2-methylpropan-2-yl]amino]-2-hydroxypropoxy]methyl]-2-fluorobiphenyl-4-carboxylic acid]: the IC50 was determined as 16 nM. Next, `Cc1ccc(CC(C)(C)NC[C@@H](O)CO[C@@H](c2ccccc2-c2ccc(C(=O)O)c(C)c2)C2CC2)cc1F` [Example 1-14, 2′-[(cyclopropyl)[(2R)-3-[[1-(3-fluoro-4-methylphenyl)-2-methylpropan-2-yl]amino]-2-hydroxypropoxy]methyl]-3-methylbiphenyl-4-carboxylic acid]: 6 nM. Next, `CC(OC[C@H](O)CNC(C)(C)Cc1ccc(Cl)cc1F)c1ccccc1Oc1ccc(C(=O)O)cc1` (stereo partly drawn) [Example 2-6, 4-[2-[1-[(2R)-3-[[1-(4-chloro-2-fluorophenyl)-2-methylpropan-2-yl]amino]-2-hydroxypropoxy]ethyl]phenoxy]benzoic acid]: 22 nM.

As to `CCc1ccc(CC(C)(C)NC[C@@H](O)CO[C@H](C)c2ccccc2-c2ccc(C(=O)O)c(C)c2)cc1` [Example 1-24, 2′-[1-[(2R)-3-[[1-(4-ethylphenyl)-2-methylpropan-2-yl]amino]-2-hydroxypropoxy]ethyl]-3-methylbiphenyl-4-carboxylic acid], the IC50 was found to be 20 nM. The result for `Cc1ccc(CC(C)(C)NC[C@@H](O)COC(C)c2ccccc2Oc2cccc(C(=O)O)c2)cc1F` (stereo partly drawn) [Example 2-8, 3-[2-[1-[(2R)-3-[[1-(3-fluoro-4-methylphenyl)-2-methylpropan-2-yl]amino]-2-hydroxypropoxy]ethyl]phenoxy]benzoic acid] reads 54 nM.
